The source of these data is ChEMBL document CHEMBL4831530, “Exploring Marine-Derived Ascochlorins as Novel Human Dihydroorotate Dehydrogenase Inhibitors for Treatment of Triple-Negative Breast Cancer” (J Med Chem, 2021).

SMILES strings stand for the structures. Active and inactive are the calls of the source. The calls are words filed in the database; no cut-off is given here.

The test system of data set [1] is MDA-MB-231. Briefly: Cytotoxicity against human MDA-MB-231 cells assessed as reduction in cell viability incubated for 24 hrs by CellTiter-Glo luminescent assay. In kind it is functional, cell-based. For orientation: Cellular ATP, detected with luciferase, serves as a proxy for viable cell number.
Data set [2] relates to MDA-MB-468. Briefly: Cytotoxicity against human MDA-MB-468 cells assessed as reduction in cell viability incubated for 24 hrs by CellTiter-Glo luminescent assay. In kind it is functional, cell-based.
The target of data set [3] is Dihydroorotate dehydrogenase (quinone), mitochondrial (Homo sapiens, UniProt Q02127). The experiment in a line: Inhibition of recombinant N-terminal His-tagged human DHODH (31 to 395 residues) expressed in Escherichia coli using DL-dihydroorotic acid as substrate and Q0 as coenzyme by DCIP based assay.
Dihydroorotate dehydrogenase (quinone), mitochondrial, sequence (Q02127 whole entry, the tested form may be a part): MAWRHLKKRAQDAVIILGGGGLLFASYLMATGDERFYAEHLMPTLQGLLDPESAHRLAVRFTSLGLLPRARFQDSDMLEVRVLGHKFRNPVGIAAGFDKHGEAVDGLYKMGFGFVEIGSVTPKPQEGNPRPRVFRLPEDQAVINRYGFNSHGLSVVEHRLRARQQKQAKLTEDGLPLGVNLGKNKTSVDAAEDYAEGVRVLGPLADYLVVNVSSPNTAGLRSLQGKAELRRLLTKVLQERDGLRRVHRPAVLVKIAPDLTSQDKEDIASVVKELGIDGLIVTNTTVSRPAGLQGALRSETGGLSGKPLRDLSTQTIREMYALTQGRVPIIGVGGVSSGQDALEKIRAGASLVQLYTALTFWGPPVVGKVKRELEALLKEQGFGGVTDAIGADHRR
In data set [4] the test system is MDA-MB-231. The experiment in a line: Induction of apoptosis in human MDA-MB-231 cells assessed as increase in apoptotic cells incubated for 2 days by annexin-V/FITC propidium iodide staining based flow cytometry analysis. The note with it: time 2.0 day. In kind it is functional, cell-based. Background: Flow cytometry measures light scatter and fluorescence of single cells or particles in a stream.

Data set [5] relates to MDA-MB-468. Briefly: Induction of apoptosis in human MDA-MB-468 cells assessed as increase in apoptotic cells incubated for 2 days by annexin-V/FITC propidium iodide staining based flow cytometry analysis. In kind it is functional, cell-based. The note with it: time 2.0 day.
The subject of data set [6] is MDA-MB-231. Briefly: Inhibition of cell proliferation in human MDA-MB-231 cells at <=10 uM incubated for 4 days in presence of uridine by CellTiter-Glo luminescent assay. In kind it is functional, cell-based. The note with it: dose microM <=10, time 4.0 day.
Data set [7] relates to MDA-MB-468. The experiment in a line: Inhibition of cell proliferation in human MDA-MB-468 cells at <=10 uM incubated for 4 days in presence of uridine by CellTiter-Glo luminescent assay. The note with it: dose microM <=10, time 4.0 day. In kind it is functional, cell-based.
Data set [8] can be described thus: Toxicity in NOD/SCID mouse xenografted with patient-derived breast cancer cells assessed as effect on body weight loss at 15 to 60 mg/kg, ip administered 5 times a week and measured after 21 days. In kind it is organism-based. The note with it: in vivo, 504 h, dose 15-60 mg/kg, time 21 day.
Data set [9] in a line: Toxicity in NOD/SCID mouse xenografted with patient-derived breast cancer cells assessed as effect on organ damage at 15 to 60 mg/kg, ip administered 5 times a week and measured after 21 days by hematoxylin and eosin staining based analysis. In kind it is organism-based. The note with it: in vivo, 504 h, dose 15-60 mg/kg, time 21 day.
A short description of data set [10]: Toxicity in NOD/SCID mouse xenografted with patient-derived breast cancer cells assessed as body weight loss at 2.5 to 10 mg/kg, ip administered 5 times a week and measured after 16 days. The note with it: in vivo, 384 h, dose 2.5-10 mg/kg, time 16 day. In kind it is organism-based.
A short description of data set [11]: Toxicity in NOD/SCID mouse xenografted with patient-derived breast cancer cells assessed as liver injury at 2.5 to 10 mg/kg, ip administered 5 times a week and measured after 16 days by hematoxylin and eosin staining based analysis. The note with it: in vivo, 384 h, dose 2.5-10 mg/kg, time 16 day. Format: organism-based.

Turning to `C=C(/C=C/[C@@]1(C)[C@H](C)CCC(=O)[C@@H]1C)[C@H](O)Cc1c(O)c(Cl)c(C)c(C=O)c1O`, the 50% inhibitory concentration (IC50) in data set [1] (Homo sapiens, MDA-MB-231, 24 h) worked out at 45 µM; in data set [2] (Homo sapiens, MDA-MB-468, 24 h) it was 34 µM; in [3], 3.9 µM.
For the compound `C=C1CCC(=O)C(C)(C)[C@@H]1CC/C(C)=C/Cc1c(O)c(Cl)c(C)c(C(=O)O)c1O`, the IC50 in data set [1] (Homo sapiens, MDA-MB-231, 24 h) is greater than 60 µM; in [2] (Homo sapiens, MDA-MB-468, 24 h), greater than 60 µM; in data set [3], 15 µM.
As to `C/C(=C\Cc1c(O)cc(C)c(C=O)c1O)CC/C=C(\C)CCC(=O)C(C)(C)O`, the IC50 in [1] (Homo sapiens, MDA-MB-231, 24 h) is greater than 60 µM; in [2] (Homo sapiens, MDA-MB-468, 24 h), 57 µM; in data set [3], 7.9 µM.
For `C/C(=C\Cc1c(O)c(Cl)c(C)c(C(=O)O)c1O)CC/C=C(\C)CC[C@H](O)C(C)(C)O`, in that order: greater than 60 µM, 49 µM and 20 µM.
As for `CC(=O)O[C@@H](CC/C(C)=C/CC/C(C)=C/Cc1c(O)c(Cl)c(C)c(C=O)c1O)C(C)(C)O`, the IC50 was determined as 7.4 µM in data set [1] (Homo sapiens, MDA-MB-231, 24 h); 6 µM in data set [2] (Homo sapiens, MDA-MB-468, 24 h); 30 µM in [3]. For the same compound, the Activity result in data set [4] was “Dose-Dependent Effect”; in [5], “Dose-Dependent Effect”; in data set [8] it was “Non-Toxic”; in data set [9], “Non-Toxic”. Besides, the inhibition result in data set [6] and in data set [7] was “inactive” throughout.
Turning to `C/C(=C\Cc1c(O)c(Cl)c(C)c(C=O)c1O)CC/C(C)=C(\C)C(C)CCCO` (centres undefined), the half-inhibitory concentration (IC50) turned out to be 12 µM in [1] (Homo sapiens, MDA-MB-231, 24 h); 7.5 µM in data set [2] (Homo sapiens, MDA-MB-468, 24 h); 32 µM in data set [3].
For `CC(/C=C/[C@@]1(C)[C@H](C)CCC(=O)[C@@H]1C)=C\Cc1c(O)cc(C)c(C=O)c1O`, in that order: greater than 60 µM, 38 µM and 42 µM.
For the compound `C/C(=C\Cc1c(O)c(Cl)c(C)c(C=O)c1O)CC[C@@]1(C)[C@H](C)CCC(=O)[C@@H]1C` [ILICICOLIN C], the IC50 in data set [1] (Homo sapiens, MDA-MB-231, 24 h) is 34 µM; in data set [2] (Homo sapiens, MDA-MB-468, 24 h) it was 13 µM; in data set [3] it was 1.9 µM.
Turning to `C/C(=C\Cc1c(O)c(Cl)c(C)c(C=O)c1O)CC/C=C(\C)CC[C@H](O)C(C)(C)O`, the IC50 in [1] (Homo sapiens, MDA-MB-231, 24 h) was 23 µM; in data set [2] (Homo sapiens, MDA-MB-468, 24 h) it was 20 µM; in [3], 3.7 µM.
For the compound `Cc1c(Cl)c2c(c(O)c1C=O)C[C@H]([C@@](C)(O)/C=C/[C@@]1(C)[C@H](C)CCC(=O)[C@@H]1C)O2`, the IC50 is 25 µM in [1] (Homo sapiens, MDA-MB-231, 24 h); 26 µM in [2] (Homo sapiens, MDA-MB-468, 24 h); greater than 60 µM in data set [3].
For `Cc1c(-c2ccc(-c3ccccc3F)cc2)nc2ccc(F)cc2c1C(=O)O` [BREQUINAR], the figures for the IC50 in data set [1] (mda-mb-231) and in [2] (mda-mb-468) were 0.31 µM and 0.082 µM, respectively. Also, the Activity result in data set [10] and in data set [11] was “Toxic” each time.
As to `C/C(=C\Cc1c(O)c(Cl)c(C)c(C=O)c1O)CC/C=C(\C)[C@@H]1C[C@H](O)C(C)(C)O1`, the IC50 in [1] (Homo sapiens, MDA-MB-231, 24 h) stood at 12 µM; in [2] (Homo sapiens, MDA-MB-468, 24 h), 11 µM; in [3], 0.72 µM.
For `C=C(C)[C@@H](O)CC/C(C)=C/CC/C(C)=C/Cc1c(O)c(Cl)c(C)c(C=O)c1O`, in that order: 3.3 µM, 1.7 µM and 0.39 µM.
The like results for `Cc1c(Cl)c(O)c(C[C@@H]2[C@@]3(C)CC[C@H](O)C(C)(C)[C@@H]3CC[C@@]2(C)O)c(O)c1C=O` were, in that order, greater than 60 µM, greater than 60 µM and 31 µM.

The term IC50 denotes the point on the concentration scale where inhibition reaches its midpoint.
